These results are taken from patent publication US20240307374A1, “FORMULATION OF FURIN INHIBITOR FOR INHALATION” (BP ASSET V, INC., priority 2021, published 2024).

Usually pKa stands for the pH at which an ionisable group is half protonated. By solubility is commonly meant the concentration that dissolves in the medium under given conditions.

Series [1] can be described thus: pKa test, spectrophotometric method (UV-metric pKa). The format is physicochemical. How it is done: (§1) The spectrophotometric method (UV-metric pKa) and potentiometric method (pH-metric pKa) were used for pKa test of Compound (I) freeform.
1. For UV-metric pKa, the pKa values were determined by monitoring the change in UV absorbance with pH as the compound undergoes ionization.
(§2) The psKa values were extrapolated to 0% organic content using the Yasuda-Shedlovsky extrapolation procedure for pKa values.

A short description of series [2]: pKa test, potentiometric method (pH-metric pKa). To be noted: MeOH cosolvent, Yasuda-Shedlovsky extrapolation. The format is physicochemical. The protocol:
as §1
2. For pH-metric pKa, the pKa values were determined from an examination of the shape of the resultant titration curves and fitting a suitable theoretical model for the compound's ionization behavior onto the titration data.
as §2

Series [3] in a line: Log D7.4 test, n-octanol/aqueous (pH=7.4) shake flask method. The format is physicochemical. The protocol: The detailed procedure is summarized below. • 1. Pre-equilibrate n-octanol and aqueous buffer by adding 10 mL n-octanol and 10 mL aqueous buffer into a glass vial and keep it rolling for 24 h. The mutually saturated n-octanol and aqueous buffer are obtained after phase separation. • 2. Weigh approximately 1.0 mg sample into a 3-mL glass vial with 1.0 mL of saturated n-octanol inside (obtained in step 1 above) and accelerate dissolution by ultrasonication. • 3. Add 1.0 mL of complementary saturated aqueous buffer into the vial. • 4. Prepare samples in triplicate. Seal the glass vial and mix on a rotary mixer at 25° C. for 24 h. • 5. The phases are separated after rolling. • 6. The concentrations of the compound in each phase are determined by HPLC. Samples in n-octanol phase are diluted 10 times by adding 100 μL of sample solution and 900 µL of ACN/H2O (v/v, 3:1) diluent and mixed well. • 7. Distribution coefficient, referred to as Dow, is calculated as the concentration of the test compound (both ionized and un-ionized) in the n-octanol phase divided by the corresponding concentration in the aqueous phase.

Series [4] in a line: Equilibrium solubility in pH buffers (3.0-8.0), 20% captisol and water. To be noted: H2O, RT, 24 hrs. Format: physicochemical. How it is done: Additional solids were added into the sample to generate suspension if clear solution obtained. The suspension was equilibrated via stirring (1000 rpm). The suspension was centrifuged to obtain precipitate and supernatants.
Solubility and pH were tested for the supernatants after filtration, and isolated precipitate was tested by XRPD.
(§3) • 1. pH=3.0 buffer (50 mM HCl+KCl): Weigh 365.39 mg KCl into a 100 mL volumetric flask (VF), and add 0.1 mL 1M HCl into the VF, and dilute to volume with water. • 2. pH=4.0 buffer (50 mM citrate): Weigh 56.74 mg citric acid and 60.18 mg trisodium citrate into a 10 mL volumetric flask, and dilute to volume with water. • 3. pH=5.0 buffer (50 mM citrate) Weigh 11.12 mg citric acid and 95.38 mg trisodium citrate into a 10 mL volumetric flask, and dilute to volume with water. • 4. pH=6.0 buffer (50 mM citrate) Weigh 11.04 mg citric acid and 130.2 mg trisodium citrate into a 10 mL volumetric flask, and dilute to volume with water. • 5. pH=6.0 buffer (50 mM phosphate) Weigh 8.7 mg Na2HPO4 and 52.6 mg NaH2PO4 into a 10 mL volumetric flask, and dilute to volume with water. • 6. pH=7.0 buffer (50 mM phosphate) Weigh 23.47 mg Na2HPO4 and 43.34 mg NaH2PO4into a 10 mL volumetric flask, and dilute to volume with water. • 7. pH=8.0 buffer (50 mM phosphate) Weigh 31.64 mg Na2HPO4 and 67.18 mg NaH2PO4into a 10 mL volumetric flask, and dilute to volume with water.

Series [5] can be described thus: Equilibrium solubility in pH buffers (pH 4.0-6.0) with pH adjustment. The format is physicochemical. To be noted: pH = 4.0 buffer (50 mM citrate), RT, with pH adjustment. How it is done: In details, ˜5 mg of solids were suspended into 1 mL of each medium with dosing conc. at ˜5 mg/mL. Additional solids were added into the sample to generate suspension if clear solution was obtained. The suspension was equilibrated via stirring (1000 rpm) for 24 hours. The pH of the suspension was adjusted when the final pH shifted above 0.3, and the samples were stirred for another 1.5 hours after pH adjustment. The suspension was centrifuged to obtain precipitate and supernatants. Solubility, purity and pH were tested for the supernatants after filtration, and isolated precipitate was tested by XRPD.
as §3

Series [6] in a line: Phase I PK study, intranasal, cotton rats (plasma, lungs, BAL). Format: in vivo, Sigmodon hispidus cotton rats. From the text: (§4) Fifty (50) inbred, 6-8 week old, Sigmodon hispidus female and male cotton rats (source: Sigmovir Biosystems, Inc., Rockville MD) were maintained and handled under veterinary supervision in accordance with the National Institutes of Health guidelines and Sigmovir Institutional Animal Care and Use Committee's approved animal study protocol (IACUC Protocol #15). Fifteen animals were used in Phase I and 35 animals in Phase II studies. Each group of 5 animals included 3 females (the first three animals in each group) and 2 males (the last 2 animals in each group). Groups of even number of animals included equal number of males and females. Cotton rats were housed in clear polycarbonate cages and provided with standard rodent chow (Harlan #7004) and tap water ad lib.
To prepare excipient solution, 125 mg of citric acid anhydrous and 972 mg of lactose anhydrous were dissolved in water by adding 6 ml to the powder. The solution was vortexed. Final volume was adjusted to 10 mL with water for final concentration of 65 mM citric acid anhydrous and 284 mM lactose anhydrous. The solution was stored at 4±2° C.
(§5) Step 1. Divided 15 young S. hispidus (6-8 week old) between 3 groups (3 females and 2 males per group). Eartaged, weighed, and eyebleed all animals under isoflurane anesthesia for serum and plasma. Treated all animals intranasally with the solution indicated in Table 8-1 below, 5 0 μl/100 g animal (administered in both nostrils).
(§6) Step 2. Measured weight, collected clinical observations (e.g., changes in appearance, movement, posture), and repeated treatments on all animals as in Step 1.
Step 3. Measured weight, collected clinical observations (e.g., changes in appearance, movement, posture), and repeated treatments on all animals as in Step 1.
Step 4. Measured weight, collected clinical observations (e.g., changes in appearance, movement, posture), and repeated treatments on all animals as in Step 1.
Step 5. Measured weight, collected clinical observations, and repeated treatment on all animals as described in Step 1. After 1 h Step 6, terminally bled one animal from each group, followed by the necropsy with gross pathology examination and collection of BAL (right lung) and lung samples (left lung) for the PK assessment. After 3 h Step 7, terminally bled the second animal from each group, followed by the necropsy with gross pathology examination and collection of BAL and lung samples for the PK assessment.
Step 8. Terminally bled the third animal from each group, followed by the necropsy with gross pathology examination and collection of BAL and lung samples for the PK assessment.
Step 9. […]
Step 10. Measured weight and collected clinical observations on the remaining animals. […]

Series [7] can be described thus: Tolerability (weight, clinical observations, gross pathology) in the Phase I study. The format is in vivo, Sigmodon hispidus cotton rats.
Text: as §4, §5, §6
Step 5. Measured weight, collected clinical observations, and repeated treatment on all animals as described in Step 1. […]

The nature of series [8]: DVS (dynamic vapor sorption) moisture uptake. The format is physicochemical. The protocol: (FIG. 5). Sample weight decreased rapidly when humidity decreased from 10% to 0%, which might be caused by loss of crystalline water.
DVS was measured via a SMS (Surface Measurement Systems) DVS Intrinsic.

Series [9] can be described thus: Thermodynamic relationships study: slurry competition in acetone/H2O systems. The format is physicochemical. To be noted: RT. How it is done:
Slurry competition was conducted in acetone/H2O systems with various water activities (0.0-1.0). […] Solids were separated and tested by XRPD.
(§7) To measure the solubility of freeform in acetone/H2O systems with various water activities, the above experiments were re-performed with addition of aw=0.3 acetone/H2O system. The suspension sample was centrifuged to obtain precipitate and supernatants. Solubility was tested for the supernatants after filtration, and isolated precipitate was tested by XRPD.
Solids were separated and tested by XRPD.

A short description of series [10]: Solubility of freeform in acetone/H2O systems with various water activities. To be noted: thermodynamic from solid. The format is physicochemical. The protocol: as §7
Series [11] is described as follows: XRPD before and after drying (form stability on drying). Format: physicochemical. As to conditions: wet cake, vacuum drying at RT for about 3 hours.

Values after ≈ are worked out from the molar mass of the structure shown. Values joined by “and” are separate entries in the source; they are usually repeats but may differ in a detail not shown here. Equal entries are not always repeated. “Also recorded” adds a separate entry of the source. Where only a bound is given, the exact number is not on record here.

As to `CC(=O)NCC1CCN(Cc2cc(Oc3ccc(N4CCN(CCC(=O)O)CC4)nc3)nc(-c3cc(Cl)cc(Cl)c3)c2)CC1` [Compound (I) freeform], the pKa in series [1] (36.4% MeOH in water, MeOH concentration of 36.4%, read-out: psKa (apparent pKa 1), UV-metric) is 1.84; in series [1] (48.2% MeOH in water, MeOH concentration of 48.2%, read-out: psKa (apparent pKa 1), UV-metric), 1.56; in [1] (63.9% MeOH in water, MeOH concentration of 63.9%, read-out: psKa (apparent pKa 1), UV-metric), 1.27; in series [1] (MeOH cosolvent, Yasuda-Shedlovsky extrapolation, psKa out of effective pH range 2-12, reference only, read-out: pKa 1, UV-metric), 2.21; in [1] (MeOH cosolvent, Yasuda-Shedlovsky extrapolation, read-out: pKa 2, UV-metric) it was 6.98; in [1] (MeOH cosolvent, Yasuda-Shedlovsky extrapolation, read-out: pKa 3, UV-metric), 7.68. The pKa in series [2] (read-out: pKa 1, pH-metric) was 3.41; in series [2] (read-out: pKa 2, pH-metric), 6.99; in series [2] (read-out: pKa 3, pH-metric), 7.56. The logD at 24 h in series [3] (n-octanol/aqueous buffer (pH 7.4), n-octanol/aqueous pH 7.4, three runs, read-out: Average of LogD7.4) was determined as 2.23. Also, in series [3] (n-octanol/aqueous pH 7.4, single runs 1-3), the LogD7.4 was 2.24 and 2.23. Moreover, the “Average of LogD7.4” value in [3] (n-octanol/aqueous pH 7.4, three runs) was 2.23. For the same compound, the “Final pH in aqueous phase” value in series [3] (runs 1-3) worked out at 7.3. In addition, the “Concentration, Oil (n-octanol phase)” value in series [3] (shake flask, 25° C., 24 h, runs 1-3) is 1140 µg/mL and 1100 µg/mL and 1070 µg/mL. Besides, in [3] (shake flask, pH 7.4 buffer, 25° C., 24 h, runs 1-3), the “Concentration, Aqueous” value was 7 µg/mL and 6 µg/mL. Moreover, the “S: solubility” value in series [4] was 20 µg/mL; in series [5], > 36900 µg/mL.

For the compound `CC(=O)NCC1CCN(Cc2cc(Oc3ccc(N4CCN(CCC(=O)O)CC4)nc3)nc(-c3cc(Cl)cc(Cl)c3)c2)CC1` [Compound (I)], the “dose dependence of concentration in plasma and lungs” value in series [6] (0.1, 0.3, 1 mg/kg, highest level with 1 mg/kg 1 hr post-treatment) is recorded as “dose-dependent effect”. Moreover, the “persistence of level in plasma and lungs” value in [6] (after last intranasal dose, depending on the dose) is reported as “remained elevated for several hours”. Moreover, the “detection in BALF” value in [6] (intranasal QD for 5 days, 0.1, 0.3, 1 mg/kg per day) is recorded as “much less so in BALF”. Also, the “detection in plasma and lungs” value in series [6] (intranasal QD for 5 days, 0.1, 0.3, 1 mg/kg per day, 1-24 h after last dose) was “detectable in the plasma and lungs”. Besides, the “noticeable effect (blood clotting)” value in series [7] (highest dose 1 mg/kg/day, one animal, terminal bleed) is “apparent increase in blood clotting time in one of the animals”. In addition, the tolerability entry in series [7] (intranasal QD for 5 consecutive days, 0.1, 0.3, 1 mg/kg per day) is listed as “well tolerated”.

Take `CC(=O)NCC1CCN(Cc2cc(Oc3ccc(N4CCN(CCC(=O)O)CC4)nc3)nc(-c3cc(Cl)cc(Cl)c3)c2)CC1` [Freeform Type B]: in series [8] (25° C., from 0% RH to 80% RH), the “Moisture Uptake (DVS)” value is 6.3%. For the same compound, the hygroscopicity result in [8] (European pharmacopoeia 5.0 criteria, from DVS 0-80% RH at 25° C.) was “hygroscopic”. Besides, the “form change after DVS test (XRPD)” value in series [8] (XRPD before and after DVS) is given as “No form change”. Besides, in series [9], the “water activity (aw) at which the form was obtained” value is listed as “below 0.2”. The solubility at 2 days was found to be 810 µg/mL (≈ 1.26 mM) in series [10] (acetone (aw 0), organic solvent or mixture, Acetone, aw 0, RT) and 3960 µg/mL (≈ 6.18 mM) in series [10] (acetone/H2O (986:14), aw 0.2, organic solvent or mixture, Acetone/H2O (986:14), aw 0.2, RT).

In the case of `CC(=O)NCC1CCN(Cc2cc(Oc3ccc(N4CCN(CCC(=O)O)CC4)nc3)nc(-c3cc(Cl)cc(Cl)c3)c2)CC1` [Freeform Type C], the “form change on drying (XRPD)” value in series [11] was “transformed to freeform Type A; also recorded: Transferred to freeform Type A after drying at RT”.
